Data set [1] can be described thus: in vivo. The following applies: male, ICR, mouse, iv, 5 mg/kg.
Data set [2] is described as follows: in vivo. The note with it: male, ICR, mouse, iv, 5 mg/kg. The source holds these as a separate data set.
The subject of data set [3] is L02. Description: Cytotoxicity against HL7702 cells assessed as effect on cell viability at 10 uM incubated for 48 hrs by resazurin reagent based assay. In kind it is toxicity. The following applies: human, l02, 48 h. A general note: The colour change of resazurin is a common sign of viable cells or microbes.
Data set [4] concerns the target T1, Polyamine deacetylase HDAC10 (Homo sapiens, UniProt Q969S8).
T1 sequence (Q969S8 whole entry): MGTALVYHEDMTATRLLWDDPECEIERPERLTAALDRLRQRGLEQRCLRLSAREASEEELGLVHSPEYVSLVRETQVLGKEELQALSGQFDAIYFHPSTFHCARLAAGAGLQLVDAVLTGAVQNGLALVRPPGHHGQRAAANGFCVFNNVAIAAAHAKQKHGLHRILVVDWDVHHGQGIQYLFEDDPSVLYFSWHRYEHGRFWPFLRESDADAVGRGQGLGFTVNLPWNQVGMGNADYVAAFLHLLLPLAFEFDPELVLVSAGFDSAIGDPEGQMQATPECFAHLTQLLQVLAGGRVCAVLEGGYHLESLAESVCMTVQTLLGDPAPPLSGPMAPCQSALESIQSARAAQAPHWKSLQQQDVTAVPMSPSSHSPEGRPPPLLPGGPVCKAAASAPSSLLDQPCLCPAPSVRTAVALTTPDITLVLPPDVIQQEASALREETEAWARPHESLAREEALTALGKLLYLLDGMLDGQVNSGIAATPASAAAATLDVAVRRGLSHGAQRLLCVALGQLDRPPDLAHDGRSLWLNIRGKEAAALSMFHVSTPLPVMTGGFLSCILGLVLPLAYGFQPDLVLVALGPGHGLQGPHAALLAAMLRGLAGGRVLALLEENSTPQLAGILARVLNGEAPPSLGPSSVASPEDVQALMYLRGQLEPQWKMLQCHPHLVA
Description: Inhibition of recombinant HDAC10 (unknown origin) using Ac-Gly-Ala-Lys(AMC) as substrate preincubated for 1 hrs followed by substrate addition and measured after 2 hrs by fluorescence based microplate reader analysis.

Data set [5] deals with J774.A1. As to the kind of experiment: cells. The following applies: Mus musculus, J774.A1, 48 h.
Data set [6] addresses Histone deacetylase 1 (Homo sapiens, UniProt Q13547). Description: Inhibition of recombinant HDAC1 (unknown origin) using Boc-Lys (acetyl)-AMC as substrate preincubated for 1 hrs followed by substrate addition and measured after 2 hrs by fluorescence based microplate reader analysis.
Data set [7] has as its target Histone deacetylase 3 (Homo sapiens, UniProt O15379). Description: Inhibition of recombinant HDAC3 (unknown origin) using Boc-Lys (acetyl)-AMC as substrate preincubated for 1 hrs followed by substrate addition and measured after 2 hrs by fluorescence based microplate reader analysis.
Data set [8] has as its target Histone deacetylase 2 (Homo sapiens, UniProt Q92769). Description: Inhibition of recombinant HDAC2 (unknown origin) using Boc-Lys (acetyl)-AMC as substrate preincubated for 1 hrs followed by substrate addition and measured after 2 hrs by fluorescence based microplate reader analysis.
Data set [9] deals with Histone deacetylase 9 (Homo sapiens, UniProt Q9UKV0). As to the kind of experiment: Inhibition of recombinant HDAC9 (unknown origin) using Boc-Lys (trifluoroacetyl)AMC as substrate preincubated for 1 hrs followed by substrate addition and measured after 2 hrs by fluorescence based microplate reader analysis.
Sequence of Histone deacetylase 9 (Q9UKV0 whole entry): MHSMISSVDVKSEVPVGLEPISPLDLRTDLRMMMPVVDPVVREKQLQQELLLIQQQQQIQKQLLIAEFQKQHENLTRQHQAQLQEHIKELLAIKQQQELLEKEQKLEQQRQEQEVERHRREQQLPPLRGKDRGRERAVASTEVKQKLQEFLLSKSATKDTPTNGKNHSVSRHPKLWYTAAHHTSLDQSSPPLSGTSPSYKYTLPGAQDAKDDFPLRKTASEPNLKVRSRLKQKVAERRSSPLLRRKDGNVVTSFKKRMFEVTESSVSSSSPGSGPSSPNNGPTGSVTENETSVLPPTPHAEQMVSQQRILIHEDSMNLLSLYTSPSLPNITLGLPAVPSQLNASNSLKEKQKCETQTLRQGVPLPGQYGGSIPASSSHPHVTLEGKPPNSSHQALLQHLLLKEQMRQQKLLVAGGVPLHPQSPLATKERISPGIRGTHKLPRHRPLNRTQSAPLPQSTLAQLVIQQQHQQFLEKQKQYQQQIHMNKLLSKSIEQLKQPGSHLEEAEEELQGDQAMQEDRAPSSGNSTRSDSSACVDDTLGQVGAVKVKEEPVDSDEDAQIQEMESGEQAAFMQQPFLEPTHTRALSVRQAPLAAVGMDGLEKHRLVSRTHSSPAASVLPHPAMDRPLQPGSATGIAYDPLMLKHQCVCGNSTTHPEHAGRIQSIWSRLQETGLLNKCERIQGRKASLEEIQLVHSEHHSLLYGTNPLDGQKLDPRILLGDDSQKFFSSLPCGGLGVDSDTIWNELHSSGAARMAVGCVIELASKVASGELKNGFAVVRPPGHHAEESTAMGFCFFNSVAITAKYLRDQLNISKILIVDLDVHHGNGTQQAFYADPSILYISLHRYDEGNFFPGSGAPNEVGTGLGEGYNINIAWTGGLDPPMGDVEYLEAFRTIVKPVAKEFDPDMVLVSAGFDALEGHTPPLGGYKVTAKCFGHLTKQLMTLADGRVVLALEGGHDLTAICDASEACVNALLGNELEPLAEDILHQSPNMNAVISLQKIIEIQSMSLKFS
Data set [10] deals with Histone deacetylase 4 (Homo sapiens, UniProt P56524). Description: Inhibition of recombinant HDAC4 (unknown origin) using Boc-Lys (trifluoroacetyl)AMC as substrate preincubated for 1 hrs followed by substrate addition and measured after 2 hrs by fluorescence based microplate reader analysis.
Sequence of Histone deacetylase 4 (P56524 whole entry): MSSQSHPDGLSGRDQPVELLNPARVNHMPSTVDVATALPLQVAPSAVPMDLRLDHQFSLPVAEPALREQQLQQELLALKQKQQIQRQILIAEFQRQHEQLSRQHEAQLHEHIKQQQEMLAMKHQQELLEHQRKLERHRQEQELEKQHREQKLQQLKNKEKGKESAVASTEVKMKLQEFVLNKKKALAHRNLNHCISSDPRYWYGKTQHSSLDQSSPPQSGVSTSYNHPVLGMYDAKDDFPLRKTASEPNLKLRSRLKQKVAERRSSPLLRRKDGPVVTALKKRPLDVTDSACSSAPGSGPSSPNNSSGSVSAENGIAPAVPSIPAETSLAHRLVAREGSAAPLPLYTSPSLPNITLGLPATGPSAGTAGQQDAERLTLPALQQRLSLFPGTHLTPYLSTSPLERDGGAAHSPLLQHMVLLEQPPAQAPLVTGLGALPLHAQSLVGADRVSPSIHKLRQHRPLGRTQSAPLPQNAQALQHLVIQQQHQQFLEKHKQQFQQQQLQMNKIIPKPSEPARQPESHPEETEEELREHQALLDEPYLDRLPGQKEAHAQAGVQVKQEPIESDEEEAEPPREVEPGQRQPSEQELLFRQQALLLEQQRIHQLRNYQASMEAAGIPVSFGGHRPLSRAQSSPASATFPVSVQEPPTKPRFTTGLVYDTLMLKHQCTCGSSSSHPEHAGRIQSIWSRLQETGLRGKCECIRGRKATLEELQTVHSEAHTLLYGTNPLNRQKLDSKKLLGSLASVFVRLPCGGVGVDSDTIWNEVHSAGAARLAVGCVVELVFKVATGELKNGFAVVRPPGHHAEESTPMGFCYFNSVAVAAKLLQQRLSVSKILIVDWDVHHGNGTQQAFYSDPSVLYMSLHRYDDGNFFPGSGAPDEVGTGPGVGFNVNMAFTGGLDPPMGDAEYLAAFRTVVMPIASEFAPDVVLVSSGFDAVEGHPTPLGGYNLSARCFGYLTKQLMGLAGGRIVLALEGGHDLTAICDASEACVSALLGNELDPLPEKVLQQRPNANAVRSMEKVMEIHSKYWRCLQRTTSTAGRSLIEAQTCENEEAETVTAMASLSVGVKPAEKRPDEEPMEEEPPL
Data set [11] deals with Histone deacetylase 5 (Homo sapiens, UniProt Q9UQL6). As to the kind of experiment: Inhibition of recombinant HDAC5 (unknown origin) using Boc-Lys (trifluoroacetyl)AMC as substrate preincubated for 1 hrs followed by substrate addition and measured after 2 hrs by fluorescence based microplate reader analysis.
Sequence of Histone deacetylase 5 (Q9UQL6 whole entry): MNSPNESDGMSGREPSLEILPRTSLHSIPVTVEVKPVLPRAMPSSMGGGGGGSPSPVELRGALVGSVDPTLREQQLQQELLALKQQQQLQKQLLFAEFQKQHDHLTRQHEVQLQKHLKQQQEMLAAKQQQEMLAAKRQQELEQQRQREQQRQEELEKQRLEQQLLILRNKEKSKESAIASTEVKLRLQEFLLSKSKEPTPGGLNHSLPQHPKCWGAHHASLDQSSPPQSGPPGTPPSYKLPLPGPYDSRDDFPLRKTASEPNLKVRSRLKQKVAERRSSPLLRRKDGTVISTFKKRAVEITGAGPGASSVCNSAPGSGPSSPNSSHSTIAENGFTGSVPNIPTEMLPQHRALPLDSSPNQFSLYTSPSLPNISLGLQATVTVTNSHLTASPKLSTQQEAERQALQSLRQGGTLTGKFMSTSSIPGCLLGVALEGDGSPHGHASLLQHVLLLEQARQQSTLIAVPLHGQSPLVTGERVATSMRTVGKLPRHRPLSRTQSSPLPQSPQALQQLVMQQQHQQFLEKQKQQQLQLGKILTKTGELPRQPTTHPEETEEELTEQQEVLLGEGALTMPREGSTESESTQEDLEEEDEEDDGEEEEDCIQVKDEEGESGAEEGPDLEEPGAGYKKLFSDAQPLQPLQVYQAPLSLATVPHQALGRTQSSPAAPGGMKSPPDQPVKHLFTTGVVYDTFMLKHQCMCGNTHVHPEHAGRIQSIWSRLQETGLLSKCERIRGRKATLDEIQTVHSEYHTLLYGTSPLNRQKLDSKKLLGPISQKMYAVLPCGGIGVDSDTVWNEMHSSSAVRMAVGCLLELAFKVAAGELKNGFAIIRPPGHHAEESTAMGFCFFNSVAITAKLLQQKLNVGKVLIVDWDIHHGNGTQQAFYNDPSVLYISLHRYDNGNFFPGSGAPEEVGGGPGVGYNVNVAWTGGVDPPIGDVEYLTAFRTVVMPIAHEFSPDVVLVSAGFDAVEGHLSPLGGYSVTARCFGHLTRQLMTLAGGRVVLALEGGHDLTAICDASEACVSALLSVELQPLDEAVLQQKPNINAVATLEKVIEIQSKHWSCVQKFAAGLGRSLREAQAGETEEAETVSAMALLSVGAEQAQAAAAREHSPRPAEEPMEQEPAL
Data set [12] concerns the target T2, Histone deacetylase 8 (Homo sapiens, UniProt Q9BY41).
T2 sequence (Q9BY41 whole entry): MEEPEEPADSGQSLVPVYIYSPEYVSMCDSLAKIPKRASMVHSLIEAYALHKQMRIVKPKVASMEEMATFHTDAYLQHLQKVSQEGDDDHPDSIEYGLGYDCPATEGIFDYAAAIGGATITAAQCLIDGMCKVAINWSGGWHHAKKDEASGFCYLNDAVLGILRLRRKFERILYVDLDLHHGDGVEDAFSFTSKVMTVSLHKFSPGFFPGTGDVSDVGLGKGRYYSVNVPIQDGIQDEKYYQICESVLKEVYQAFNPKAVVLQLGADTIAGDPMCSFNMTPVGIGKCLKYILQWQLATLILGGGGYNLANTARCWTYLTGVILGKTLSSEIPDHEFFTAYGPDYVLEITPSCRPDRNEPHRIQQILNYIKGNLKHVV
As to the kind of experiment: Inhibition of recombinant HDAC8 (unknown origin) using Boc-Lys (trifluoroacetyl)AMC as substrate preincubated for 1 hrs followed by substrate addition and measured after 2 hrs by fluorescence based microplate reader analysis.

For data set [13], the target named is T3, Histone deacetylase 7 (Homo sapiens, UniProt Q8WUI4).
T3 sequence (Q8WUI4 whole entry): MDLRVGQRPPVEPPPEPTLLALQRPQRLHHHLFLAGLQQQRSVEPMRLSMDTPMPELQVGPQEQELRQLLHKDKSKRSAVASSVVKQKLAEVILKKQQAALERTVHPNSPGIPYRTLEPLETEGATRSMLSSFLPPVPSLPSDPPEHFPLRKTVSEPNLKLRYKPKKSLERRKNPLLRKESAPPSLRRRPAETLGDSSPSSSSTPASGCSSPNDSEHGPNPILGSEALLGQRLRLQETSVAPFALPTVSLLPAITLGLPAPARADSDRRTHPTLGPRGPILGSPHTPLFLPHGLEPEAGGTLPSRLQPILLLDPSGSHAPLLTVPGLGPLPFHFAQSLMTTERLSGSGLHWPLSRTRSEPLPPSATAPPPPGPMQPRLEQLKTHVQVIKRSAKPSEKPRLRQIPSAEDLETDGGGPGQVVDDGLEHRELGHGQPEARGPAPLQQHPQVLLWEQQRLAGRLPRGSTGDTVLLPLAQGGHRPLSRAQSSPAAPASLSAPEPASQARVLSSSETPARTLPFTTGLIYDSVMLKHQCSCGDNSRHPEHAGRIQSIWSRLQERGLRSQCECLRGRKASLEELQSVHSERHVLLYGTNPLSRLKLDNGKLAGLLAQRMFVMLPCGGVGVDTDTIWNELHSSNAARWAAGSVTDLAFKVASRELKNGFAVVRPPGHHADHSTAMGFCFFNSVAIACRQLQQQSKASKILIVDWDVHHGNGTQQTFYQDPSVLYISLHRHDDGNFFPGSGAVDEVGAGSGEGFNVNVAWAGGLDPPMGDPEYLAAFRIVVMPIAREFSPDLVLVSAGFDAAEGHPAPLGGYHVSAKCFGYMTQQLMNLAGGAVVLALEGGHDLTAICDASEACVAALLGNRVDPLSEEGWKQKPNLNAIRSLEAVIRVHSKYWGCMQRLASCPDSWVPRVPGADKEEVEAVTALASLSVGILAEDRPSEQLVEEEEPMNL
As to the kind of experiment: Inhibition of recombinant HDAC7 (unknown origin) using Boc-Lys (trifluoroacetyl)AMC as substrate preincubated for 1 hrs followed by substrate addition and measured after 2 hrs by fluorescence based microplate reader analysis.

Data set [14] concerns the target T4, Histone deacetylase 11 (Homo sapiens, UniProt Q96DB2).
T4 sequence (Q96DB2 whole entry): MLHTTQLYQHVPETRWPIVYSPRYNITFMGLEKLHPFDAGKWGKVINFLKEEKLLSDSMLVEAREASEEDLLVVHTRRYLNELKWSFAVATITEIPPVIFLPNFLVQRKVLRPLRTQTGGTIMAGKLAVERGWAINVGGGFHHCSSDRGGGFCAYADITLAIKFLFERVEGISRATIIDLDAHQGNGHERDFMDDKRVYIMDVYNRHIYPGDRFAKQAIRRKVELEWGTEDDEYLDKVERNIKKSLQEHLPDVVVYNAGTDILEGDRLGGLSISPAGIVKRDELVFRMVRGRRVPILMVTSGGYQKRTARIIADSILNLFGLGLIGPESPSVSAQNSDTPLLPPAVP
Description: Inhibition of recombinant HDAC11 (unknown origin) using ETDKacyl-Kmyr as substrate preincubated for 1 hrs followed by substrate addition and measured after 2 hrs by fluorescence based microplate reader analysis.

Data set [15] relates to L02. Description: Cytotoxicity against HL7702 cells assessed as effect on cell viability incubated for 48 hrs by resazurin reagent based assay. In kind it is toxicity. The following applies: human, l02, 48 h.

The structures appear in SMILES notation.

Sequence of Histone deacetylase 1 (Q13547 whole entry): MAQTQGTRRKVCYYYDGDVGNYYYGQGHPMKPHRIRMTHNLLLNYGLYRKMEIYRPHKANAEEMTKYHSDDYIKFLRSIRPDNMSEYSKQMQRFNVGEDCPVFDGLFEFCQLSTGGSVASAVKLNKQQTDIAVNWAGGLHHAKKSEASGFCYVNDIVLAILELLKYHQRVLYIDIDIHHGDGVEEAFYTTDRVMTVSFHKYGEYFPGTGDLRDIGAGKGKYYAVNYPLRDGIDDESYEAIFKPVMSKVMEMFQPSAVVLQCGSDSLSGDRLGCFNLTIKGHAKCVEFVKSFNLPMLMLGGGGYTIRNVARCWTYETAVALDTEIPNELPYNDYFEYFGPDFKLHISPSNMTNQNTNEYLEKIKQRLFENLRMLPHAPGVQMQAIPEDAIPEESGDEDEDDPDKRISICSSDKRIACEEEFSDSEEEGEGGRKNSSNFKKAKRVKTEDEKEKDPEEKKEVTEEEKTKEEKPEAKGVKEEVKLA
Sequence of Histone deacetylase 3 (O15379 whole entry): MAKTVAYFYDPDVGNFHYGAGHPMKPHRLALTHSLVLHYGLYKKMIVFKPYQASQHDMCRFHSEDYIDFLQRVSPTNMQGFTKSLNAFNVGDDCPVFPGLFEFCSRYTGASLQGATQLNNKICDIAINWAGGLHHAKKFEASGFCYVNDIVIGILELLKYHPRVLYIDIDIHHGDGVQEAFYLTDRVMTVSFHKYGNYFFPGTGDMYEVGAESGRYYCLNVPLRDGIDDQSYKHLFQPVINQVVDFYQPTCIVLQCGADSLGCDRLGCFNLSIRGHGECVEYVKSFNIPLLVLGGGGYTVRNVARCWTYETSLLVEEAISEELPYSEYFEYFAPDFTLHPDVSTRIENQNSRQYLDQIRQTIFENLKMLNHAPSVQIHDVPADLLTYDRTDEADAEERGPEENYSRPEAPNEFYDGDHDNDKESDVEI
Sequence of Histone deacetylase 2 (Q92769 whole entry): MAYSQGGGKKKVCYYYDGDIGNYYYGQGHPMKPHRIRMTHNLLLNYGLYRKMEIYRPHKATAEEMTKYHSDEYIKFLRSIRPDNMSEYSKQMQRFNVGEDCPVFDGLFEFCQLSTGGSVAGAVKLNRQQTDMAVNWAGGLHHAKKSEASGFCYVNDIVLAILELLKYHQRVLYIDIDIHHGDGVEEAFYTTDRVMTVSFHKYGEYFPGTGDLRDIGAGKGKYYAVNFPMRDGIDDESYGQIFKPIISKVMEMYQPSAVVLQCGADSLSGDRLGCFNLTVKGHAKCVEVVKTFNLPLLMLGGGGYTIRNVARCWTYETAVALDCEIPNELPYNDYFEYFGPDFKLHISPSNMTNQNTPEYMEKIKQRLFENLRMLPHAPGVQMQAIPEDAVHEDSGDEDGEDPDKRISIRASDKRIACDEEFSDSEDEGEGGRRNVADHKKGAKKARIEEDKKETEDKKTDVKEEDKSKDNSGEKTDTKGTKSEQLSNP

In data set [1], `CCNNC(=O)c1ccc(CN2c3ccccc3C=Cc3ccncc32)cc1` came in with a Vd at 24 h of 3.51 L/kg. Besides, in [2], the clearance at 24 h came out at 30.6 mL/min/kg. The Activity entry in data set [3] is listed as “Toxic”. Also, the results for the IC50 in [4] and in [5] were over 10 µM and 25.6 µM, respectively.

Turning to `CCNNC(=O)c1cc(F)c(CN2c3ccccc3C=Cc3ccncc32)c(F)c1`, the IC50 in data set [6], in [7] and in data set [8] was over 10 µM throughout.

In the case of `CCNNC(=O)c1cc(F)c(CN2c3ccccc3Sc3cccnc32)cc1F`, the IC50 in data set [6], in data set [7] and in [8] was over 10 µM each time.

As to `CCNNC(=O)c1cc(F)c(CN2c3ccccc3C=Cc3ccncc32)cc1F`, the IC50 in [6] is over 10 µM; in [9], over 10 µM; in [10], over 10 µM; in [11], over 10 µM; in data set [12], over 10 µM; in data set [7] it was 7.04 µM. The IC50 in data set [13], in data set [4], in data set [8] and in data set [14] was over 10 µM throughout.

Take `CCNNC(=O)c1ccc(CN2c3ccccc3C=Cc3ccncc32)c(F)c1`: the IC50 is 8.74 µM in [6]; 2.27 µM in data set [9]; over 10 µM in [10]; over 10 µM in data set [11]; over 10 µM in data set [12]; 3.75 µM in [7]. For the same compound, the IC50 in data set [13], in [4], in [8] and in [14] was over 10 µM each time.

`O=C(NNCCF)c1ccc(CN2c3ccccc3C=Cc3ccncc32)cc1`: the values for the IC50 in data set [6], in data set [7] and in data set [8] were over 10 µM, 6.37 µM and over 10 µM, respectively.

As for `CCNNC(=O)c1cc(F)c(Cn2c3ccccc3c3ccccc32)cc1F`, the IC50 in data set [6], in data set [7] and in data set [8] was over 10 µM in each case.

On to `CCNNC(=O)c1cc(F)c(CN2c3ccccc3C=Cc3ccccc32)cc1F`, for which the IC50 in data set [6], in [7] and in data set [8] was over 10 µM in each case.

On to `CCNNC(=O)c1cc(F)c(Cn2c3ccccc3c3cccnc32)cc1F`, for which the IC50 in data set [6], in [7] and in [8] was over 10 µM each time.

On to `CCNNC(=O)c1cc(F)c(CNc2cccc3cccnc23)cc1F`, for which the IC50 in [6], in data set [7] and in data set [8] was over 10 µM in each case.

Take `CCNNC(=O)c1ccc(CN2c3ccccc3C=Cc3ccncc32)cc1F`: the IC50 in [6] was over 10 µM; in data set [7] it was 1.79 µM; in [8], over 10 µM.

On to `O=C(CCCCCCNC(=O)c1cnc(N(c2ccccc2)c2ccccc2)nc1)NO` [RICOLINOSTAT], for which, in data set [15], the Activity entry is recorded as “Toxic”.

Broadly, the Vd is a proportionality between amount in the body and measured concentration, not a real space. Low values mean confinement near the circulation, high ones extensive tissue distribution. A word on the clearance: it is the volume of plasma or blood freed of the substance per unit of time. Higher therefore signals efficient removal. As usually defined, the IC50 is the concentration that inhibits the measured activity by half.

The values above are taken from ChEMBL document CHEMBL6134854, “Development of Hydrazide-Based HDAC6 Selective Inhibitors for Treating NLRP3 Inflammasome-Related Diseases” (J Med Chem, 2025).
